Measurements taken from patent US8808664B2, “Lipidated glycoprotein particles and methods of use” (Ramot at Tel-Aviv University Ltd., priority 2004, dated 2014).

Legend:
[1] = Efficiency of entrapment of drugs/bioactive agents in collagen disks or particles; format: physicochemical
Experimental: Efficiency of entrapment of drugs/bioactive agents in the collagen disks or particles, and kinetics of drug efflux for small molecular weight drugs was determined utilizing absorption spectra (mostly in an ELISA plate reader), fluorescence emission spectra (mostly in a fluorescence plate reader), and HPLC. Half-life data was processed according to a theoretical framework previously developed for liposomes (Margalit et al., 1991), incorporated herein in its entirety) which yields the rate constant for drug efflux.

[2] = test system: HT29 colon adenocarcimona cell line; experiment: Treatment of multi-drug resistant cell lines, cell survival by MTT assay; format: cell-based, human; conditions: 24-28 hours post-treatment
Experimental: (§1) FIGS. 6A-6C show results for three cell lines, C26 (FIG. 6A), HT29 (FIG. 6B) and […], in terms of response to chemotherapeutic drugs encapsulated in collagen particles. The bars represent 60-64 repeats and the error bars represent the standard deviation. Three asterisks (***) indicate p<0.001.
(§2) Cells were seeded onto 96 well plates, and the experiment was initiated at semi-confluency, usually 24 hours post seeding. For the test system, cells were given a selected dose of the drug of choice, which was entrapped in a collagen particle formulation (washed of excess free drug prior to use). The controls were given the same dose of free drug, and a dose of drug-free collagen particles at a dose similar to that of the test system. Cell survival was determined 24-28 hours post-treatment, using the MTT assay (Nutt, et al. 2000; and Larsen et al., 2000).

[3] = test system: C26 colon adenocarcimona cell line; experiment: as above; format: cell-based, mouse; conditions: 24-28 hours post-treatment
Experimental: as §1, §2

[4] = test system: glioma C6 line; experiment: as above; format: cell-based, rat; conditions: 24-28 hours post-treatment
Experimental: as §1, §2

[5] = Collagen Disks (1-20 mm in a diameter)
[6] = Collagen particles (0.5-10 μm in diameter)

Row | Compound | % Entrapment [1, 5] | % Entrapment [1, 6] | cell survival / response (MTT), FIGS. 6A-6C [2] | cell survival / response (MTT), FIGS. 6A-6C [3] | cell survival / response (MTT), FIGS. 6A-6C [4]
1 | O=C(N[C@H](CO)[C@H](O)c1ccc([N+](=O)[O-])cc1)C(Cl)Cl [CAM, chloramphenicol] | 89.5 ± 1.4% | 94.1 ± 0.8% |  |  | 
2 | COc1cccc2c1C(=O)c1c(O)c3c(c(O)c1C2=O)C[C@@](O)(C(=O)CO)C[C@@H]3O[C@H]1C[C@H](N)[C@H](O)[C@H](C)O1 [DOX, doxorubicin] | 78.4 ± 2.4% | 71.9 ± 0.4% | typical for the inherent form of MDR | typical for the inherent form of MDR | typical for the inherent form of MDR
3 | CO[C@@]12[C@H](COC(N)=O)C3=C(C(=O)C(C)=C(N)C3=O)N1C[C@@H]1N[C@@H]12 [MMC, Mitomycin C] | 80.2 ± 1.0% | 67.3 ± 2.1% |  |  | 
4 | Insulin: high molecular weight drug entrapped in collagen particles and disks | 89.4 ± 2.3% | 91.2 ± 0.7% |  |  | 
